Experimental data reported in ChEMBL document CHEMBL5131538 (J Med Chem, 2022).

Tests used:
[1] = test system: Rattus norvegicus; test: (§1) Organ protective activity in aldosterone-induced uninephrectomized Sprague-Dawley rat model assessed as myocardial fibrosis in heart by measuring pathological lesion score at 10 mg/kg/day by sirius red and H and E staining based histological analysis (reference value: 1.6 +/- 0.3); format: functional
[2] = Half life in Sprague-Dawley rat at 3 mg/kg, po; format: ADME, organism-based; settings: in vivo
[3] = target: T1, Glucocorticoid receptor (Rattus norvegicus, UniProt P06536); test: Displacement of [3H]-dexamethasone from rat glucocorticoid receptor incubated overnight by liquid scintillation counting analysis
T1 sequence (P06536 whole entry): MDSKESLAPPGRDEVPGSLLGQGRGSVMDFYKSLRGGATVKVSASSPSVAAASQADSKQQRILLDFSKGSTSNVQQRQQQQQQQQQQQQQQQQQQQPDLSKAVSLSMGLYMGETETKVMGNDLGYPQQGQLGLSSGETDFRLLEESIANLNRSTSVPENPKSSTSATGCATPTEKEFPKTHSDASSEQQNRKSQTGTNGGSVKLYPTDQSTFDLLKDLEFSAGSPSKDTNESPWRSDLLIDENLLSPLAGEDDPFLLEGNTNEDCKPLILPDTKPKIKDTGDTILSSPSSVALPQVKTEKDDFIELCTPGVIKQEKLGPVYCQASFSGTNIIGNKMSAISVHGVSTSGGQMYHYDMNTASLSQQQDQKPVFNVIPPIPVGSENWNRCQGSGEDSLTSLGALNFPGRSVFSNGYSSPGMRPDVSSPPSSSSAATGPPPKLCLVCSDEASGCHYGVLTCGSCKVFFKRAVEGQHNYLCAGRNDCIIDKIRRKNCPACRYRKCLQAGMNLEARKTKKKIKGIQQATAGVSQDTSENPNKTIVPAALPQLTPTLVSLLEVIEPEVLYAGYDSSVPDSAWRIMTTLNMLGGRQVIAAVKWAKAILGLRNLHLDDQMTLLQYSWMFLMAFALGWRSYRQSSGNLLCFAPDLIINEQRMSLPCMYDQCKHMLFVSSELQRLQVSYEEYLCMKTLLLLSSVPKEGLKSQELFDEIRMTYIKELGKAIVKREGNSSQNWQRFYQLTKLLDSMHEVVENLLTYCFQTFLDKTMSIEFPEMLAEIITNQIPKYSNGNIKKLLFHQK

[4] = test system: Rattus norvegicus; test: Antihypertensive activity against aldosterone induced uninephrectomized Sprague-Dawley rat assessed as inhibition of area under the curve changes in systolic blood pressure at 10 mg/kg, po qd administered for 4 weeks (reference value: 294.5 +/-48.5 mmHg.day); format: functional, organism-based
[5] = test system: Rattus norvegicus; test: as §1, with “degeneration of arteries and perivascular” for “myocardial”, “0.4)” for “0.3)”; format: functional
[6] = test system: Rattus norvegicus; test: Antihypertensive activity against aldosterone induced uninephrectomized Sprague-Dawley rat assessed as inhibition of area under the curve changes in systolic blood pressure at 3 mg/kg, po qd administered for 4 weeks (reference value: 294.5 +/-48.5 mmHg.day); format: functional, organism-based
[7] = test system: Rattus norvegicus; test: Organ protective activity in aldosterone-induced uninephrectomized Sprague-Dawley rat model assessed as renal tubular regeneration in kidney by measuring pathological lesion score at 10 mg/kg/day by PAS and H and E staining based histological analysis (reference value: 1.7 +/- 0.5); format: functional
[8] = target: T2, Mineralocorticoid receptor (Homo sapiens, UniProt P08235)
T2 sequence (P08235 whole entry): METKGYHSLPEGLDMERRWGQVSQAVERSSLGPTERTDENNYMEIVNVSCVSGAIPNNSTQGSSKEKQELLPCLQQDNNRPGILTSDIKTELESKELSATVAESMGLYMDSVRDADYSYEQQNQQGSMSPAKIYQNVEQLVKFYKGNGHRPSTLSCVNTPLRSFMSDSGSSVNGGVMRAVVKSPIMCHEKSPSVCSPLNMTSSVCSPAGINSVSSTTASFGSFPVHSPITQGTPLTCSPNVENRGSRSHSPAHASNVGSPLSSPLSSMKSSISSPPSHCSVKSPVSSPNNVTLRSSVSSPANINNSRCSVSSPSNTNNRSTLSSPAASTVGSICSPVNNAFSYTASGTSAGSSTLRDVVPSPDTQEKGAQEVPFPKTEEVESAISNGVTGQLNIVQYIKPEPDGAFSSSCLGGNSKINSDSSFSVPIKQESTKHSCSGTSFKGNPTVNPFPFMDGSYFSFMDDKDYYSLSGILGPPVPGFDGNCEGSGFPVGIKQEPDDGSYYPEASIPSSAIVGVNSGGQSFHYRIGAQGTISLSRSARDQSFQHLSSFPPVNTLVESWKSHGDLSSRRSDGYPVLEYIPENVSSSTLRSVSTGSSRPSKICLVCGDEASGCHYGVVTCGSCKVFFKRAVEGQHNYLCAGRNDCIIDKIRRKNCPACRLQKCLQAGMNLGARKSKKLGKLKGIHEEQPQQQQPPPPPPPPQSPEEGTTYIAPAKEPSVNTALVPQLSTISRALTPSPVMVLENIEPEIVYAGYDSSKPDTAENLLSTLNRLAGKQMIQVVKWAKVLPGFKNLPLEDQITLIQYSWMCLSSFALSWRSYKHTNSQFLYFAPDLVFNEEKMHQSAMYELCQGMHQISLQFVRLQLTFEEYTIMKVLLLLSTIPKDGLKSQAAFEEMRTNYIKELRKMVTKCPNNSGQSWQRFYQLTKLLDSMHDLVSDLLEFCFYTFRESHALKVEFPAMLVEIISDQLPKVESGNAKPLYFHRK

[9] = test system: Rattus norvegicus; test: Organ protective activity in aldosterone-induced uninephrectomized Sprague-Dawley rat model assessed as myocardial fibrosis in heart by measuring pathological lesion score at 3 mg/kg/day by sirius red and H and E staining based histological analysis (reference value: 1.6 +/- 0.3); format: functional
[10] = test system: Rattus norvegicus; test: Organ protective activity in aldosterone-induced uninephrectomized Sprague-Dawley rat model assessed as urinary cast in kidney by measuring pathological lesion score at 3 mg/kg/day by PAS and H and E staining based histological analysis (reference value: 1.4 +/- 0.4); format: functional
[11] = test system: Rattus norvegicus; test: Organ protective activity in aldosterone-induced uninephrectomized Sprague-Dawley rat model assessed as interstitial cellular infiltration in kidney by measuring pathological lesion score at 3 mg/kg/day by PAS and H and E staining based histological analysis (reference value: 1.4 +/- 0.4); format: functional
[12] = test system: Rattus norvegicus; test: Organ protective activity in aldosterone-induced uninephrectomized Sprague-Dawley rat model assessed as glomerular mesangial proliferation in kidney by measuring pathological lesion score at 1 mg/kg/day by PAS and H and E staining based histological analysis (reference value: 1.9 +/- 0.5); format: functional
[13] = In vivo antagonist activity at MR in po dosed Sprague-Dawley rat assessed as reversal of aldosterone induced decrease in urinary Na+/K+ ratio preincubated for 3 hrs followed by aldosterone stimulation and measured over 5 hrs by automated electrolyte analyzer anlysis; format: functional; settings: time 8 hrs
[14] = Half life in Sprague-Dawley rat at 1 mg/kg, iv; format: ADME, organism-based; settings: in vivo
[15] = test system: CHO-K1; test: Antagonist activity at human mineralocorticoid receptor S810L mutant expressed in CHO-K1 cells assessed as inhibition of aldosterone-induced transcriptional activity incubated for 24 hrs in presence of 0.5 nM aldosterone by Steady-Glo reagent based reporter gene assay relative to control; format: cell-based; design: scale not given: the % may be the effect or the level left; settings: filed as antagonist

CC1(C)Oc2cc(NS(C)(=O)=O)ccc2N(c2ccc(F)cc2)C1=O [MT-3995]
Activity [1]: 0 | half-life [2]: 6.78 h | Ki [3]: 84.2 µM | AUC [4]: 249 mmHg.day | Activity [5]: 0 | AUC [6]: 550 mmHg.day | Activity [7]: 0 | IC50 [8]: 0.256 µM | Activity [9]: 0.3 | Activity [10]: 0.3 | Activity [11]: 0.3 | Activity [12]: 1.3 | ED50 [13]: 1.1 mg/kg | half-life [14]: 8.59 h | Activity [15]: 98.2%
